In patent US12637498B2, “PDLIM2 as a biomarker for cancer and as an anti-cancer treatment target” (UNIVERSITY OF PITTSBURGH—OF THE COMMONWEALTH SYSTEM OF …, priority 2019, dated 2026):
Entries after “also recorded” stand apart in the source; their conditions may differ.

What was measured:
[1] = Toxicity: animal body weight and H&E staining of major organs; format: in vivo, mouse; conditions: mice with lung cancer; 1 mg/kg of 5-aza-dC and MS-275 twice per week for 6 weeks
BACH1 [2] = experiment: ChIP and nuclear fraction IB of BACH1 in RAW264.7 macrophages; format: cell-based, mouse
Method: Cells were collected after formaldehyde treatment. The chromatin DNA was extracted, broken into fragments of 300-1000 bp in length by sonication, and immunoprecipitated with antibodies to the target. IgG was used in immunoprecipitation as a control for nonspecific signal. DNA in the immunoprecipitation product was amplified by PCR.
Whole-cell extracts were prepared by lysing cells in RIPA buffer. Nuclear extracts were prepared by lysing pellets in insoluble nuclear buffer (20 mM Tris, pH 8.0, 150 mM NaCl, 1% [wt/vol] SDS, 1% [vol/vol] NP-40, and 10 mM iodoacetamide) after the cytoplasm was extracted with the hypotonic buffer (20 mM HEPES, pH 8.0, 10 mM KCl, 1 mM MgCl2, 0.1% [vol/vol] Triton X-100, and 20% [vol/vol] glycerol). The purity of the nuclear fractions was confirmed by checking Hsp90 (cytoplasm) or lamin B/C (nuclear fraction). All the lysis buffers were supplemented with 1 mM PMSF and a protease inhibitor cocktail (Roche Molecular Biochemicals). The cell extracts were used for […]. Briefly, the cell extracts were separated on polyacrylamide gels followed by electrotransfer onto nitrocellulose membranes. […] Specific immune complexes were detected by enhanced chemiluminescence as specified by the manufacturer (Western Lightning ECL Pro; Amersham).

PDLIM2 [3] = experiment: qPCR of PDLIM2 in RAW264.7 macrophages; format: cell-based, mouse
Source text: The indicated tissues or cells were subjected to RNA extraction, RNA reverse transcription and real-time PCR using trizol, reverse transcriptase, and Power SYBR Green PCR Master Mix (Thermo Fisher Scientific, Waltham, MA USA).

PDLIM2 [4] = experiment: qPCR and IF of PDLIM2 in AMs of mice with lung tumors; design: species or system mouse; conditions: mice with lung tumors (urethane); in vivo treatment
Method: The animal experiments were performed in accordance with the US National Institutes of Health (NIH) Guidelines on the Use of Laboratory Animals. All animals were maintained under pathogen-free conditions. […], […] and Lysozyme M-Cre mice have been described before (Sun et al., Nat Commun 2019; 10:5324; Zhou et al., Oncogene 2015; 34:3804-3814; Zhou et al., Cancer Immunol Res 2017; 5:257-268; Li et al., Oncoimmunology 2018; 7:e1435250). Luciferase-expressing mice, PD-1 deficient mice and CD80/CD86 deficient mice were purchased from The Jackson Laboratory. Except for the PD-1 deficient mice and CD80/CD86 deficient mice, which are under […] background, all other mice were backcrossed to FVB/N mice (The Jackson Laboratory) for more than ten generations, and then used to generate the experimental mice. […] Louis, MO, USA) once a week for six consecutive weeks (8-10). […] Surface tumors in mouse lungs were counted by three blinded readers under a dissecting microscope, and tumor diameters were measured by microcalipers. […] Stained proteins and their subcellular localizations were detected using a fluorescence microscope. […]

BACH1 [5] = experiment: IF analysis of BACH1 nuclear translocation in AMs of mice with lung tumors; design: species or system mouse; conditions: mice with lung tumors (urethane); in vivo treatment, 5 mg/ml in drinking water
Method: The animal experiments were performed in accordance with the US National Institutes of Health (NIH) Guidelines on the Use of Laboratory Animals. All animals were maintained under pathogen-free conditions. […], […] and Lysozyme M-Cre mice have been described before (Sun et al., Nat Commun 2019; 10:5324; Zhou et al., Oncogene 2015; 34:3804-3814; Zhou et al., Cancer Immunol Res 2017; 5:257-268; Li et al., Oncoimmunology 2018; 7:e1435250). Luciferase-expressing mice, PD-1 deficient mice and CD80/CD86 deficient mice were purchased from The Jackson Laboratory. Except for the PD-1 deficient mice and CD80/CD86 deficient mice, which are under […] background, all other mice were backcrossed to FVB/N mice (The Jackson Laboratory) for more than ten generations, and then used to generate the experimental mice. […] Louis, MO, USA) once a week for six consecutive weeks (8-10). […] Surface tumors in mouse lungs were counted by three blinded readers under a dissecting microscope, and tumor diameters were measured by microcalipers. […] Stained proteins and their subcellular localizations were detected using a fluorescence microscope.

PDLIM2 [6] = experiment: qPCR analysis of PDLIM2 expression in human lung cancer cell lines; format: cell-based
[7] = system: lung cancer induced by urethane; experiment: Urethane model of lung cancer, tumor examination; format: in vivo, mouse; conditions: for tumor number and tumor burden: WT mice, carboplatin and paclitaxel together
Method: (§1) Urethane model: 6-8-week-old mice under FVB/N background were intraperitoneally (i.p.) injected with urethane (1 g/kg body weight, Sigma-Aldrich, St. Louis, MO, USA) once a week for six weeks. All mice were sacrificed for lung tumor examinations seven (for no drug treatment experiments) or six (for drug treatment experiments) weeks post urethane treatment. For drug treatment experiments, the epigenetic agents 5-aza-dC (1 mg/kg body weight, Sigma-Aldrich, St. Louis, MO, USA) and MS-275 (1 mg/kg body weight, Selleckchem, Houston, TX, USA), chemotherapeutic drugs carboplatin (30 mg/kg body weight, AdipoGen, San Diego, CA, USA) and paclitaxel (15 mg/kg body weight, AdipoGen, San Diego, CA, USA), and/or PD-1 neutralizing antibody (200 μg/mouse, BioXCell, West Lebanon, NH, USA) were i.p injected as indicated in FIG. 4. Surface tumors in mouse lungs were counted by three blinded readers under a dissecting microscope, and tumor diameters were measured by microcalipers. K-Ras^G12D model: 6-8-week-old mice under FVB/N background were intranasally administered 1×10^7 plaque-forming units of Cre-expressing adenovirus (adenocre; Gene Transfer Vector Core, University of Iowa, Iowa City, IA). Three months post AdenoCre treatment, all mice were sacrificed for lung tumor examinations.
PDLIM2flx/flx/SP-C-rtTAtg/−/(tetO)7CMV-Cretg/tg (ΔSPC) mice under a pure FVB/N background and PDLIM2−/− mice under a pure BABL/C background have been described before (Sun et al., Nat. Commun. 2019. 10, 5324). For lung carcinogenesis, six to eight week old ΔSPC and wild type FVB/N mice were intraperitoneally (i.p.) injected with urethane (1 mg/g body weight, Sigma-Aldrich, St. Louis, MO, USA) once a week for six consecutive weeks, followed by different treatment as shown in FIGS. 45A and 49A. Mice were sacrificed for lung inflammation and tumor examinations at six weeks post urethane treatment. Surface tumors in mouse lungs were counted blinded under a dissecting microscope, and tumor diameters were measured by microcalipers. […]

PD-L1 [8] = experiment: qPCR of PD-L1 in lung cancer cells; format: cell-based, human
Source text: Mouse lung tissues and BAL cells were subjected to RNA extraction, RNA reverse transcription and real-time PCR as described (Li et al., Oncoimmunology 7, e1435250 (2018); Sun et al., Bio. Protoc. 7, pii: e2287 (2017)).

PD-L1 [9] = experiment: IHC staining of PD-L1 in lung cancer (urethane model); format: in vivo, mouse; conditions: carboplatin and paclitaxel (chemotherapy)
Method: as §1
Mouse or tissues were excised, fixed in formalin, embedded in paraffin, and cut into […] sections. Sections were stained with H&E, or subjected to sequential incubations with different primary antibodies and peroxidase-conjugated goat anti-rabbit secondary antibodies. The human lung tumor tissue arrays were described previously (Sun et al., Oncogene 35, 2299-2310 (2016)).
Lung tissues were excised, fixed in formalin, embedded in paraffin, and cut into 4-μm-thick sections. Sections were stained with H&E, or subjected to sequential incubations with the indicated primary antibodies, biotinylated secondary antibodies and streptavidin-HRP.

RelA = experiment: Subcellular fraction-IB assay of nuclear RelA in lung cancer cells; format: cell-based, human; conditions: for RelA activation: lung cancer cells
MDR1 = experiment: qPCR of MDR1 in A549 lung cancer cells; format: cell-based, human; conditions: with or without PDLIM2 reconstitution
human lung cancer cells = experiment: Cell growth assays; format: cell-based
Method: Cells were seeded into 12-well plates at a density of 5,000 cells per well, in the presence or absence of the indicated treatment. Cell density was determined by replacing the medium with 2 μmol/L of calcein AM in 1× dissociation solution (Trevigen) at the indicated time points. After 1 h of incubation, diesterase activity (relative fluorescence units) was measured with a Tecan Infinite 200 Microplate Reader, using an excitation wavelength of 485 nm and emission wavelength of 520 nm.

[10] = ΔSPC mice vs WT, carboplatin and paclitaxel combination therapy (Chemo)
[11] = ΔSPC mice, PD-1 blockade combined with carboplatin/paclitaxel chemotherapy

Nc1ncn([C@H]2C[C@H](O)[C@@H](CO)O2)c(=O)n1 [5-aza-dC, 5-azadeoxycitidine]
animal body weight [1]: body weight loss

OO [H2O2]
nuclear BACH1 (nuclear fraction IB) (BACH1 [2]; RAW264.7 macrophages): induced BACH1 nuclear translocation; also recorded: increased nuclear BACH1
BACH1 and Pol II bound to the pdlim2 promoter (ChIP) (BACH1 [2]; RAW264.7 mouse macrophages, 500 μM, 4 hours): detected BACH1 at the BACH1-binding site; also recorded: more BACH1 but less Pol II bound to the pdlim2 promoter
PDLIM2 expression (qPCR) (PDLIM2 [3]; RAW264.7 macrophages treated with H2O2): PDLIM2 expression decrease; also recorded: decreased PDLIM2

CC(=O)N[C@@H](CS)C(=O)O [NAC, N-Acetyl-L-cysteine]
PDLIM2 in AMs (IF) (PDLIM2 [4]): PDLIM2 induction
PDLIM2 in AMs (qPCR) (PDLIM2 [4]): could efficiently be blocked; also recorded: increased PDLIM2
PDLIM2 expression (qPCR) (PDLIM2 [3]; RAW264.7 macrophages in LLC lung tumor cell co-culture): could block the PDLIM2 suppression; also recorded: recovery
BACH1 nuclear translocation in AMs (IF) (BACH1 [5]): could efficiently be blocked; also recorded: inhibition of BACH1 nuclear translocation

CC(/C=C/C(=O)NO)=C\[C@@H](C)C(=O)c1ccc(N(C)C)cc1 [TSA, Trichostatin A]
PDLIM2 expression (qPCR) (PDLIM2 [6]; H460 human lung cancer cells): PDLIM2 recovery
PDLIM2 expression (qPCR) (PDLIM2 [6]; human lung cancer cell lines): induced PDLIM2 re-expression

N.N.O=C([O-])C1(C(=O)[O-])CCC1.[Pt+2] [carboplatin]
tumor number and tumor burden [7]: significant decrease in tumor number and tumor burden
lung cancer treatment (tumor examination) [7, 10]: more resistant; also recorded: increased resistance
lung cancer treatment (tumor examination) [7, 11]: resistant; also recorded: more resistant
PD-L1 expression (qPCR) (PD-L1 [8]; Calu-6 human lung cancer cells): PD-L1 induction
PD-L1 expression (qPCR) (PD-L1 [8]; lung cancer cells): PD-L1 induction
PD-L1 expression in lung cancer (IHC staining) (PD-L1 [9]): PD-L1 induction

CC(=O)O[C@H]1C(=O)[C@@]2(C)[C@H]([C@H](OC(=O)c3ccccc3)[C@]3(O)C[C@H](OC(=O)[C@H](O)[C@@H](NC(=O)c4ccccc4)c4ccccc4)C(C)=C1C3(C)C)[C@]1(OC(C)=O)CO[C@@H]1C[C@@H]2O [paclitaxel]
nuclear RelA (subcellular fraction-IB) (RelA; H460 human lung cancer cells reconstituted with PDLIM2): much lower paclitaxel induction of nuclear RelA
RelA activation (RelA): further induced
RelA activation (RelA; listed as Paclitaxel): increased RelA activation
MDR1 expression (qPCR) (MDR1): PDLIM2 suppressed paclitaxel induction of MDR1
tumor number and tumor burden [7]: significant decrease in tumor number and tumor burden
lung cancer treatment (tumor examination) [7, 10]: more resistant; also recorded: increased resistance
lung cancer treatment (tumor examination) [7, 11]: resistant; also recorded: more resistant
paclitaxel sensitivity (cell growth assays) (human lung cancer cells; A549 cells with PDLIM2 reconstitution, consecutive 9-day paclitaxel cycles): increased paclitaxel sensitivity
paclitaxel sensitivity (cell growth assays) (human lung cancer cells; H460 cells with PDLIM2 reconstitution, consecutive 9-day paclitaxel cycles): increased paclitaxel sensitivity
paclitaxel sensitivity (cell growth assays) (human lung cancer cells; H460 human lung cancer cells with stable IκBα expression): overcame the paclitaxel resistance; also recorded: increased paclitaxel sensitivity
acquired resistance to paclitaxel (human lung cancer cells; lung cancer cells with ectopic PDLIM2 expression): overcame the acquired resistance; also recorded: block acquired resistance
PD-L1 expression (qPCR) (PD-L1 [8]; lung cancer cells): PD-L1 induction
PD-L1 expression in lung cancer (IHC staining) (PD-L1 [9]): PD-L1 induction
